Assay results as given in patent US20240239790A1, “7-Morpholino-1,6-Naphthyridin-5-yl Derivatives and Pharmaceutical Compositions Thereof Useful as DNA-PK Inhibitor” (adMare Therapeutics Society, priority 2021, published 2024).
pEC50, pIC50: −log10 of the molar value. Read-outs that look alike come from different tables or passages of the source.

Columns and labels:
[1] = Hepatocyte Stability Assay, mouse hepatocytes; assay type: in vitro ADME; conditions: for hepatocyte CLint at 1 uM: male, CD-1, cryopreserved hepatocytes, pH 7.3, mouse hepatocytes 0.7 million cells per mL, 1 uM compound; for Hepatocyte Stability Mouse % rem. 120 min: mouse hepatocytes
Protocol: Cryopreserved mouse hepatocytes were obtained from a pool of 10 or more male CD-1 mice. Cryopreserved human hepatocytes were obtained from a pool of 10 or more donors of mixed gender. Final hepatocyte density was 0.7 million viable cells per mL and test compound concentration was 1 uM with a maximum of 0.01% DMSO. Cryopreserved hepatocytes were thawed, washed, and resuspended in Krebs-Heinslet buffer (pH 7.3). The reaction was initiated by adding the test compound into cell suspension and incubated for 0, […], 1, 1.5, and 2 h, respectively, at 37° C./5% C02. The reaction was stopped by adding acetonitrile into the incubation mixture. Samples were then mixed, transferred completely to another 96-well plate, and centrifuged. Supernatants were used for HPLC-MS/MS analysis. […] Peak areas corresponding to the test compound were recorded.

DNA-PK = molecular target: T1, DNA-PK (Homo sapiens, UniProt P78527); experiment: DNA-PK Assay for Biochemical Enzymatic Inhibition (ADP Glo Kinase assay); conditions: DNA-PK enzyme, Table 1
T1 construct: purchased Invitrogen PR9107A
Procedure, shortened: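 Human DNA-PK (25 ng) preincubated 15 min with compounds (ten three-fold dilutions) in HEPES pH 7.5, MgCl2, KCl, calf thymus DNA buffer, then substrate 434.4 μM and ATP 64.4 μM (final) for 60 min at room temperature. ADP-Glo luminescence; percent inhibition fitted by four-parameter regression for IC50.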

[2] = test system: pDNA-PK induction in HCT116 tumour spheroids; experiment: Multicellular tumour spheroid + radiation, pDNA-PK (ser2056) inhibition, immunohistochemical endpoint, HCT116; assay type: cell-based; conditions: Homo sapiens, 20 Gy, 20% O2
Procedure, shortened: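 HCT116 spheroids (~0.5 mm) in MEM/10% FBS, 20% O2, 37° C., pre-incubated 1 h with compound (10 or 5 μM down to 3.5 nM), irradiated 20 Gy, then 2 h further with compound. Cryosections immunostained for pDNA-PK ser2056; EC50 is concentration halving radiation-induced pDNA-PK.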

[3] = HCT-116, 2 hours following radiation, Example 9 Study 2, read-out: Spheroid Cell line: HCT116 Immunohistochemical endpoint pDNA-PK inhibition EC50
[4] = HCT-116, Spheroid, Cell Line: HCT115 (so in the source), 2 hours following radiation, Example 7, read-out: EC50, Immunohistochemical endpoint, pDNA-PK inhibition
[5] = HCT-116, 2 h, spheroids, Example 8, read-out: Cell line: HCT116 Immunohistochemical endpoint pDNA-PK inhibition EC50

Structure (SMILES)	hepatocyte CLint at 1 uM [1]	Hepatocyte Stability Mouse % rem. 120 min [1]	pIC50 (DNA-PK)	pEC50 [2, 3]	pEC50 [2, 4]	pEC50 [2, 5]
CS(=O)(=O)c1cnc2cc(N3CCOCC3)nc(O[C@H]3CC[C@@H](Nc4ncnc5ccoc45)CC3)c2c1 [Compound 204b, N-((1s,4s)-4-((3-(methylsulfonyl)-7-morpholino-1,6-naphthyridin-5-yl)oxy)cyclohexyl)furo[3,2-d]pyrimidin-4-amine]	< 8.2 µL/min/1e6 cells	G (% remaining = 50-75%)	> 9.30	6.30 to 8.00	6.30 to 8.00	–
O=C(COc1cnc(N[C@H]2CC[C@@H](Oc3nc(N4CCOCC4)cc4ncccc34)CC2)nc1)N1CCNCC1 [Compound 63, 2-((2-(((1s,4s)-4-((7-Morpholino-1,6-naphthyridin-5-yl)oxy)cyclohexyl)amino)pyrimidin-5-yl)oxy)-1-(piperazin-1-yl)ethan-1-one]	< 8.2 µL/min/1e6 cells	H (% remaining = 75-100%)	> 9.30	5.00 to 6.00	5.00 to 6.00	–
CS(=O)(=O)c1cnc2cc(N3CCOCC3)nc(O[C@H]3CC[C@@H](Nc4ncccn4)CC3)c2c1 [Compound 200b, N-((1s,4s)-4-((3-(methylsulfonyl)-7-morpholino-1,6-naphthyridin-5-yl)oxy)cyclohexyl)pyrimidin-2-amine]	< 8.2 µL/min/1e6 cells	G (% remaining = 50-75%)	> 9.30	5.00 to 6.00	5.00 to 6.00	–
O=C(Cn1c(=O)n(C2CCOCC2)c2nc(N[C@H]3CC[C@@H](Oc4nc(N5CCOCC5)cc5ncccc45)CC3)ncc21)N1CCC1 [Compound 99, 7-(2-(Azetidin-1-yl)-2-oxoethyl)-2-(((1s,4s)-4-((7-morpholino-1,6-naphthyridin-5-yl)oxy)cyclohexyl)amino)-9-(tetrahydro-2H-pyran-4-yl)-7,9-dihydro-8H-purin-8-one]	< 8.2 µL/min/1e6 cells	G (% remaining = 50-75%)	> 9.30	6.30 to 8.00	6.30 to 8.00	–
O=C(O)c1cnc2cc(N3CCOCC3)nc(O[C@H]3CC[C@@H](n4ccnc4)CC3)c2c1 [Compound 165, 5-(((1s,4s)-4-(1H-imidazol-1-yl)cyclohexyl)oxy)-7-morpholino-1,6-naphthyridine-3-carboxylic acid]	< 8.2 µL/min/1e6 cells	H (% remaining = 75-100%)	> 9.30	4.00 to 5.00	4.00 to 5.00	4.00 to 5.00
CN(C)C(=O)Cn1ccc2nc(N[C@H]3CC[C@@H](Oc4nc(N5CCOCC5)cc5ncccc45)CC3)ncc21 [Compound 86, N,N-Dimethyl-2-(2-(((1s,4s)-4-((7-morpholino-1,6-naphthyridin-5-yl)oxy)cyclohexyl)amino)-5H-pyrrolo[3,2-d]pyrimidin-5-yl)acetamide]	< 8.2 µL/min/1e6 cells	H (% remaining = 75-100%)	> 9.30	6.30 to 8.00	6.30 to 8.00	–
CN(C)C(=O)Cn1ccc(C(=O)N[C@H]2CC[C@@H](Oc3nc(N4CCOCC4)cc4ncccc34)CC2)c1 [Compound 141, 1-(2-(dimethylamino)-2-oxoethyl)-N-((1s,4s)-4-((7-morpholino-1,6-naphthyridin-5-yl)oxy)cyclohexyl)-1H-pyrrole-3-carboxamide]	< 8.2 µL/min/1e6 cells	G (% remaining = 50-75%)	> 9.30	–	6.30 to 8.00	–
O=C(NO)c1cnc2cc(N3CCOCC3)nc(O[C@H]3CC[C@@H](n4ccnc4)CC3)c2c1 [Compound 172, 5-(((1s,4s)-4-(1H-imidazol-1-yl)cyclohexyl)oxy)-N-hydroxy-7-morpholino-1,6-naphthyridine-3-carboxamide]	> 8.2 µL/min/1e6 cells	F (% remaining = 25-50%)	> 9.30	5.00 to 6.00	5.00 to 6.00	5.00 to 6.00
O=C(COc1cnc(N[C@H]2CC[C@@H](Oc3nc(N4CCOCC4)cc4ncccc34)CC2)nc1)N1CCOCC1 [Compound 61, 1-Morpholino-2-((2-(((1s,4s)-4-((7-morpholino-1,6-naphthyridin-5-yl)oxy)cyclohexyl)amino)pyrimidin-5-yl)oxy)ethan-1-one]	< 8.2 µL/min/1e6 cells	G (% remaining = 50-75%)	9.00 to 9.30	6.30 to 8.00	6.30 to 8.00	–
O=c1[nH]c2cnc(N[C@H]3CC[C@@H](Oc4nc(N5CCOCC5)cc5ncccc45)CC3)nc2n1C1CCOCC1 [Compound 95, 2-(((1s,4s)-4-((7-Morpholino-1,6-naphthyridin-5-yl)oxy)cyclohexyl)amino)-9-(tetrahydro-2H-pyran-4-yl)-7,9-dihydro-8H-purin-8-one]	> 8.2 µL/min/1e6 cells	F (% remaining = 25-50%)	9.00 to 9.30	6.30 to 8.00	6.30 to 8.00	–
Cn1c(=O)[nH]c2cnc(N[C@H]3CC[C@@H](Oc4nc(N5CCOCC5)cc5ncccc45)CC3)nc21 [Compound 100, 9-Methyl-2-(((1s,4s)-4-((7-morpholino-1,6-naphthyridin-5-yl)oxy)cyclohexyl)amino)-7,9-dihydro-8H-purin-8-one]	> 8.2 µL/min/1e6 cells	E (% remaining = 0-25%)	> 9.30	6.30 to 8.00	6.30 to 8.00	–
CN(C)C(=O)Cn1c(=O)n(C2CCOCC2)c2nc(N[C@H]3CC[C@@H](Oc4nc(N5CCOCC5)cc5ncccc45)CC3)ncc21 [Compound 97, N,N-Dimethyl-2-(2-(((1s,4s)-4-((7-morpholino-1,6-naphthyridin-5-yl)oxy)cyclohexyl)amino)-8-oxo-9-(tetrahydro-2H-pyran-4-yl)-8,9-dihydro-7H-purin-7-yl)acetamide]	< 8.2 µL/min/1e6 cells	H (% remaining = 75-100%)	> 9.30	6.30 to 8.00	6.30 to 8.00	–
CN(C)C(=O)COc1cnc(N[C@H]2CC[C@@H](Oc3nc(N4CCOCC4)cc4ncc(NS(C)(=O)=O)cc34)CC2)nc1 [Compound 182, N,N-dimethyl-2-((2-(((1s,4s)-4-((3-(methylsulfonamido)-7-morpholino-1,6-naphthyridin-5-yl)oxy)cyclohexyl)amino)pyrimidin-5-yl)oxy)acetamide]	< 8.2 µL/min/1e6 cells	H (% remaining = 75-100%)	> 9.30	6.30 to 8.00	6.30 to 8.00	–
Cn1c(=O)n(C2CCOCC2)c2nc(N[C@H]3CC[C@@H](Oc4nc(N5CCOCC5)cc5ncccc45)CC3)ncc21 [Compound 96, 7-Methyl-2-(((1s,4s)-4-((7-morpholino-1,6-naphthyridin-5-yl)oxy)cyclohexyl)amino)-9-(tetrahydro-2H-pyran-4-yl)-7,9-dihydro-8H-purin-8-one]	< 8.2 µL/min/1e6 cells	G (% remaining = 50-75%)	> 9.30	6.00 to 6.30	6.00 to 6.30	–
